For data set [1], the system named is rabbit eye. In words: IOP after suprachoroidal liposomal latanoprost or daily topical latanoprost (Example 2). Format: in vivo, Dutch-Belt rabbits. The following applies: daily eye drops 0.005% for two weeks. Here is the method: A suprachoroidal injector (SupraMedical, Israel) was used that has a 30-gauge needle attached to an extension tubing connected to a 1 ml syringe. The length of the injector is adjusted by inputting readings of scleral thickness combined with a correction factor, supplied on a calibration table from the manufacturer. The scleral thickness was determined by ultrasound bio-microscopy (UBM). After the depth dial was set to the correct position, the plunger of the injector and the syringe were depressed simultaneously. Injections were delivered over 5-10 seconds. After the drug formulation or control was delivered, the plunger was released, and the injector gradually removed.
Rabbits receiving suprachoroidal injection had their scleral thickness measured with Optovue RTVue OCT. The thickness of the sclera was measured at 3 mm posterior to the corneoscleral junction. An average of three readings were taken to determine the mean scleral thickness. The length of the needle on the injector was subsequently calibrated by adding 300 μm to the mean scleral thickness. […]
Four Dutch-Belt rabbits (n=8 eyes) were used in this study. Baseline IOP was measured using a calibrated Tonopen XL® (Reichert Ophthalmic Instruments, Depew, NY). […] Animals were handled consistently to ensure stable IOP readings. […]
Three readings were taken for each eye and an average obtained. […]

Data set [2] has as its system rabbit eye. The following applies: in vivo.
Protocol: OCT macula were captured at baseline, at week 1, and at 4 week intervals thereafter.
P values were calculated using a 2 tailed t-test.

On to `CC(C)OC(=O)CCC/C=C\C[C@@H]1[C@@H](CC[C@@H](O)CCc2ccccc2)[C@H](O)C[C@@H]1O` [Topical latanoprost, latanoprost], for which, in the data set on rabbit eye [1], the “maximum decrease in IOP” value is recorded as 38%. This compound also showed a Mean retinal thickness in the data set with rabbit eye [2] of 131.44 μm.

These data come from patent publication US20250387331A1, “PROSTAGLANDIN ANALOGS AND METHODS FOR SUSTAINED GLAUCOMA MANAGEMENT” (Peregrine Ophthalmic PTE LTD, priority 2024, published 2025).
